Tested on: Pityrosporum ovale
Experiment: agar surface coating test (ASCT) against Pityrosporum ovale, in shampoo
Format: cell-based
Settings: shampoo containing Octopirox compared with a shampoo without Octopirox
Procedure: Whatever the chosen test according to the invention, a culture of the selected germ was set up on Petri dishes under the same test conditions in parallel with a control solution composed in general of sterilised water or of a saline solution. After the period(s) of incubation considered according to the selected test, the surface area of the dish which was free of bacteria and/or fungi was measured for both the tested compound and the control solution. By calculating a surface ratio, a relative surface value, enabling the selection of the compounds with an antimicrobial activity of at least 80% in one of these tests of effectiveness, was defined. The following germs were used in these methods: Pityrosporum ovale, Staphylococcus aureus, Staphylococcus epidermidis, Escherichia coli, Pseudomonas aeruginosa, Candida albicans, Trichophyton mentagrophytes. […]
The tested product and the agar surface are again left in contact for 30 s under the same conditions as above, followed by the stage of rinsing and of 24-h incubation at ambient temperature, and the antimicrobial evolution is observed again after this second phase of the test. […] The microbicidal or microbiostatic action can be established after each phase of the test, and recorded. […]

Cc1cc(CC(C)CC(C)(C)C)n(O)c(=O)c1.NCCO (stereo not shown) [Octopirox®, Piroctone olamine]
reduction of growth of P. ovale: 60%
